This is an account of results in patent US10351575B2, “Bicyclic urea, thiourea, guanidine and cyanoguanidine compounds useful for the treatment of pain” (Array BioPharma Inc., priority 2012, dated 2019).

Some results are limits rather than exact numbers.

Usually IC50 stands for the concentration that inhibits the measured activity by half.

His-tagged recombinant human TrkA, sequence (P04629 440-796): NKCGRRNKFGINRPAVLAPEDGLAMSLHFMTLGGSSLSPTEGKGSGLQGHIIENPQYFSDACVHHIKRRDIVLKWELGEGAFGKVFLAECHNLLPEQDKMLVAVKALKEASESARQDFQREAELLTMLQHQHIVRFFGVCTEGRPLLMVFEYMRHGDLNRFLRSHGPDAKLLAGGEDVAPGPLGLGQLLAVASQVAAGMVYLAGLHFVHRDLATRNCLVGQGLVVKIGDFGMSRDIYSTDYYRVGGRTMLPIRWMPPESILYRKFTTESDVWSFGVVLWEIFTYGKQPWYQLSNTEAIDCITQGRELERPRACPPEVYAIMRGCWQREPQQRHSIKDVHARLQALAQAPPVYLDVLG

The test has as its target His-tagged recombinant human TrkA (Homo sapiens (Human), UniProt P04629). Nature of the test: TrkA LanthaScreen Eu Kinase Binding Assay. As to conditions: averaged IC50; TR-FRET binding, 60 min, 22° C.; read-out: TrkA Enzyme IC50. The method, then: TrkA binding activity was determined in a TrkA LanthaScreen™ Eu Kinase Binding Assay. 5 nM His-tagged recombinant human TrkA (6HIS tagged cytoplasmic domain from Invitrogen, Catalog No. PV3144) was incubated with 4 nM Alexa-Fluor® Tracer 236 (Invitrogen Cat. No. PV5592), 2 nM biotinylated anti-His (Invitrogen Cat. No. PV6090), and 2 nM europium-labeled Streptavidin (Invitrogen Cat. No. PV5899), in buffer (25 mM MOPS, pH 7.5, 5 mM MgCl2, 0.005% Triton X-100). Three fold serial dilutions of compounds of the invention in DMSO were added to a final percentage of 2% DMSO. After 60-minute incubation at 22° C., the reaction was measured using the EnVision mutlimode plate reader (PerkinElmer) via TR-FRET dual wavelength detection at […]. The percent of control was calculated using a ratiometric emission factor. The IC50 values were determined by fitting a four parameter model to the percent of control data.
(In general: In TR-FRET formats the signal depends on donor and acceptor labels being close together.)
Regarding `Cc1c(-c2cnn(C)c2)nn(-c2ccccc2)c1NC(=O)N[C@@H]1c2ccccc2C2(CC2)[C@H]1O` (relative stereo) [Example 55, 1-(1′,4-dimethyl-1-phenyl-1H,1′H-[3,4′-bipyrazol]-5-yl)-3-(trans-2′-hydroxy-2′,3′-dihydrospiro[cyclopropane-1,1′-inden]-3′-yl)urea], the concentration for half-maximal inhibition (IC50) is less than 100 nM.

As for `Cc1ncc(-c2nn(-c3ccccc3)c(NC(=O)N[C@@H]3c4ccccc4C4(CC4)[C@H]3O)c2C)cn1` (relative stereo) [Example 56, 1-(trans-2′-hydroxy-2′,3′-dihydrospiro[cyclopropane-1,1′-inden]-3′-yl)-3-(4-methyl-3-(2-methylpyrimidin-5-yl)-1-phenyl-1H-pyrazol-5-yl)urea], the half-maximal inhibitory concentration (IC50) is less than 100 nM.

Regarding `COc1ncc(-c2nn(-c3ccccc3)c(NC(=O)N[C@@H]3c4ccccc4C4(CC4)[C@H]3O)c2C)cn1` (relative stereo) [Example 57, 1-(trans-2′-hydroxy-2′,3′-dihydrospiro[cyclopropane-1,1′-inden]-3′-yl)-3-(3-(2-methoxypyrimidin-5-yl)-4-methyl-1-phenyl-1H-pyrazol-5-yl)urea], the IC50 was less than 100 nM.

Regarding `Cc1c(-c2cnn(C)c2)nn(-c2ccccc2)c1NC(=O)N[C@@H]1c2cc(F)c(F)cc2C2(CC2)[C@H]1O` (relative stereo) [Example 58, 1-(trans-5′,6′-difluoro-2′-hydroxy-2′,3′-dihydrospiro[cyclopropane-1,1′-inden]-3′-yl)-3-(1′,4-dimethyl-1-phenyl-1H,1′H-[3,4′-bipyrazol]-5-yl)urea], the IC50 was less than 100 nM.

`COc1nn(-c2ccccc2)c(NC(=O)N[C@@H]2c3ccccc3C3(CC3)[C@H]2O)c1C` (relative stereo) [Example 60, 1-(trans-2′-hydroxy-2′,3′-dihydrospiro[cyclopropane-1,1′-inden]-3-yl)-3-(3-methoxy-4-methyl-1-phenyl-1H-pyrazol-5-yl)urea]: the IC50 was less than 100 nM.

Turning to `CCOc1nn(-c2ccccc2)c(NC(=O)N[C@@H]2c3ccccc3C3(CC3)[C@H]2O)c1C` (relative stereo) [Example 61, 1-(3-ethoxy-4-methyl-1-phenyl-1H-pyrazol-5-yl)-3-(trans-2′-hydroxy-2′,3′-dihydrospiro[cyclopropane-1,1-inden]-3-yl)urea], the IC50 is less than 100 nM.

As to `COc1nn(-c2ccccc2)c(NC(=O)N[C@@H]2c3cc(F)c(F)cc3C3(CC3)[C@H]2O)c1C` (relative stereo) [Example 62, 1-(trans-5′,6′-difluoro-2′-hydroxy-2′,3′-dihydrospiro[cyclopropane-1,1′-inden]-3′-yl)-3-(3-methoxy-4-methyl-1-phenyl-1H-pyrazol-5-yl)urea], the IC50 is less than 100 nM.

On to `Cc1c(-c2cnn(C)c2)nn(-c2ccccc2)c1NC(=O)N[C@@H]1c2cc(F)ccc2C2(CC2)[C@H]1O` (relative stereo) [Example 63, 1-(1′,4-dimethyl-1-phenyl-1H,1′H-[3,4′-bipyrazol]-5-yl)-3-(trans-5′-fluoro-2′-hydroxy-2′,3′-dihydrospiro[cyclopropane-1,1′-inden]-3′-yl)urea], for which the IC50 is less than 100 nM.

For the molecule `Cc1c(-c2cnn(C)c2)nn(-c2ccccc2)c1NC(=O)N[C@@H]1c2ccc(F)cc2C2(CC2)[C@H]1O` (relative stereo) [Example 64, 1-(1′,4-dimethyl-1-phenyl-1H,1′H-[3,4′-bipyrazol]-5-yl)-3-(trans-6′-fluoro-2′-hydroxy-2′,3′-dihydrospiro[cyclopropane-1,1′-inden]-3′-yl)urea], the IC50 was less than 100 nM.

Consider `Cc1c(NC(=O)N[C@@H]2c3ccccc3C(C)(C)C[C@H]2O)n(-c2ccccc2)[nH]c1=O` (relative stereo) [Example 95, 1-(trans-2-hydroxy-4,4-dimethyl-1,2,3,4-tetrahydronaphthalen-1-yl)-3-(4-methyl-5-oxo-2-phenyl-2,5-dihydro-1H-pyrazol-3-yl)urea], for which the IC50 is less than 100 nM.

`COc1nn(-c2ccccc2)c(NC(=O)N[C@@H]2c3ccccc3C(C)(C)C[C@H]2O)c1C` (relative stereo) [Example 97, 1-(trans-2-hydroxy-4,4-dimethyl-1,2,3,4-tetrahydronaphthalen-1-yl)-3-(3-methoxy-4-methyl-1-phenyl-1H-pyrazol-5-yl)urea]: the concentration for half-maximal inhibition (IC50) is less than 100 nM.

As for `COC(=O)c1ccc2c(c1)[C@@H](NC(=O)Nc1c(C)c(C)nn1-c1ccccc1)[C@H](O)CC2(C)C` (relative stereo) [Example 99, trans-methyl 8-(3-(3,4-dimethyl-1-phenyl-1H-pyrazol-5-yl)ureido)-7-hydroxy-5,5-dimethyl-5,6,7,8-tetrahydronaphthalene-2-carboxylate], the IC50 was less than 100 nM.

On to `Cc1c(-c2cnn(C)c2)nn(-c2ccccc2)c1NC(=O)N[C@@H]1c2ccccc2CC[C@H]1O` (relative stereo) [Example 101, 1-(1′,4-dimethyl-1-phenyl-1H,1′H-[3,4′-bipyrazol]-5-yl)-3-(trans-2-hydroxy-1,2,3,4-tetrahydronaphthalen-1-yl)urea], for which the 50% inhibitory concentration (IC50) is less than 100 nM.

As for `COCc1ccc2c(c1)[C@@H](NC(=O)Nc1c(C)c(-c3cnn(C)c3)nn1-c1ccccc1)[C@H](O)CC2(C)C` (relative stereo) [Example 102, 1-(1′,4-dimethyl-1-phenyl-1H,1′H-[3,4′-bipyrazol]-5-yl)-3-(trans-2-hydroxy-7-(methoxymethyl)-4,4-dimethyl-1,2,3,4-tetrahydronaphthalen-1-yl)urea], the half-maximal inhibitory concentration (IC50) was less than 100 nM.

As for `Cc1c(-c2cnn(C)c2)nn(-c2ccccc2)c1NC(=O)N[C@@H]1c2cc(Cl)ccc2C(C)(C)C[C@H]1O` (relative stereo) [Example 104, 1-(trans-7-chloro-2-hydroxy-4,4-dimethyl-1,2,3,4-tetrahydronaphthalen-1-yl)-3-(1′,4-dimethyl-1-phenyl-1H,1′H-[3,4′-bipyrazol]-5-yl)urea], the half-inhibitory concentration (IC50) is less than 100 nM.

Take `Cc1c(-c2cnn(C)c2)nn(-c2ccccc2)c1NC(=O)N[C@@H]1c2ccccc2C(C)(C)C[C@H]1O` (relative stereo) [Example 105, 1-(1′,4-dimethyl-1-phenyl-1H,1′H-[3,4′-bipyrazol]-5-yl)-3-(trans-2-hydroxy-4,4-dimethyl-1,2,3,4-tetrahydronaphthalen-1-yl)urea]: the IC50 was less than 100 nM.

For the molecule `Cc1c(-c2ccc(=O)n(C)c2)nn(-c2ccccc2)c1NC(=O)N[C@@H]1c2ccccc2C(C)(C)C[C@H]1O` (relative stereo) [Example 106, 1-(trans-2-hydroxy-4,4-dimethyl-1,2,3,4-tetrahydronaphthalen-1-yl)-3-(4-methyl-3-(1-methyl-6-oxo-1,6-dihydropyridin-3-yl)-1-phenyl-1H-pyrazol-5-yl)urea], the IC50 was less than 100 nM.

With `Cc1c(-c2ccn(C)c(=O)c2)nn(-c2ccccc2)c1NC(=O)N[C@@H]1c2ccccc2C(C)(C)C[C@H]1O` (relative stereo) [Example 107, 1-(trans-2-hydroxy-4,4-dimethyl-1,2,3,4-tetrahydronaphthalen-1-yl)-3-(4-methyl-3-(1-methyl-2-oxo-1,2-dihydropyridin-4-yl)-1-phenyl-1H-pyrazol-5-yl)urea], the half-inhibitory concentration (IC50) was less than 100 nM.

For `Cc1ncc(-c2nn(-c3ccccc3)c(NC(=O)N[C@@H]3c4ccccc4CC[C@H]3O)c2C)cn1` (relative stereo) [Example 118, 1-(trans-2-hydroxy-1,2,3,4-tetrhydronaphthalen-1-yl)-3-(4-methyl-3-(2-methylpyrimidin-5-yl)-1-phenyl-1H-pyrazol-5-yl)urea], the IC50 is less than 100 nM.

`COc1ncc(-c2nn(-c3ccccc3)c(NC(=O)N[C@@H]3c4ccccc4CC[C@H]3O)c2C)cn1` (relative stereo) [Example 119, 1-(trans-2-hydroxy-1,2,3,4-tetrahydronaphthalen-1-yl)-3-(3-(2-methoxypyrimidin-5-yl)-4-methyl-1-phenyl-1H-pyrazol-5-yl)urea]: the IC50 was less than 100 nM.

With `CNC(=O)c1nn(-c2ccccc2)c(NC(=O)N[C@@H]2c3cc(COC)ccc3C(C)(C)C[C@H]2O)c1C` (relative stereo) [Example 120, 5-(3-(trans-2-hydroxy-7-(methoxymethyl)-4,4-dimethyl-1,2,3,4-tetrahydronaphthalen-1-yl)ureido)-N,4-dimethyl-1-phenyl-1H-pyrazole-3-carboxamide], the 50% inhibitory concentration (IC50) is less than 100 nM.

Take `Cc1nn(-c2ccccc2)c(NC(=O)N[C@@H]2c3ccccc3CC[C@H]2O)c1C` (relative stereo) [Example 121, 1-(3,4-dimethyl-1-phenyl-1H-pyrazol-5-yl)-3-(trans-2-hydroxy-1,2,3,4-tetrahydronaphthalen-1-yl)urea]: the IC50 was less than 100 nM.

As for `Cc1c(OCC2CCN(C)CC2)nn(-c2ccccc2)c1NC(=O)N[C@@H]1c2ccccc2C(C)(C)C[C@H]1O` (relative stereo) [Example 122, 1-(trans-2-hydroxy-4,4-dimethyl-1,2,3,4-tetrahydronaphthalen-1-yl)-3-(4-methyl-3-((1-methylpiperidin-4-yl)methoxy)-1-phenyl-1H-pyrazol-5-yl)urea], the IC50 is less than 100 nM.

On to `Cc1c(OCC2CCN(C)CC2)nn(-c2ccccc2)c1NC(=O)N[C@@H]1c2ccccc2CC[C@H]1O` (relative stereo) [Example 123, 1-(trans-2-hydroxy-1,2,3,4-tetrahydronaphthalen-1-yl)-3-(4-methyl-3-((1-methylpiperidin-4-yl)methoxy)-1-phenyl-1H-pyrazol-5-yl)urea], for which the half-inhibitory concentration (IC50) is less than 100 nM.
